From PubChem BioAssay AID540269 (Sanford-Burnham Center for Chemical Genomics, 2011) come the findings set out here.

pIC50: −log10 of the molar value. Several values for one entry are separate records, joined by “and”; a condition that tells them apart may be missing. Equal values may be shown once. Activity calls are given as the source filed them. How the calls were made is not given here.

This experiment addresses glucose-6-phosphate dehydrogenase-6-phosphogluconolactonase (Plasmodium falciparum 3D7). Put plainly: inhibition of P. falciparum G6PD activity – biochemical, kinetic NADPH detection, orthogonal assay, dose response (AID 540269). The note with it: purified PfG6PD-6PGL.
The pIC50 is −log10 of the IC50, conventionally taken in molar units. Regarding `CN(C)c1ccc(/C=C/c2ccc3c4ccccc4ccc3[n+]2-c2ccccc2)cc1`, the pIC50 is 4.35.

Usually IC50 stands for the midpoint of a concentration-inhibition curve. As for `CCSc1nc2cc(S(=O)(=O)N3CCOCC3)ccc2o1`, the IC50 was > 80 µM (inactive).

`O=[N+]([O-])c1ccc(N/N=C/c2ccc(O)c(O)c2O)c(S(=O)(=O)N2CCOCC2)c1`: the pIC50 was 4.12.

On to `CCCNC(=O)Cn1sc2nc(C)cc(C)c2c1=O`, for which the pIC50 is 4.29.

As for `COc1ccc(Nc2cc(C)c3c(O)cccc3n2)cc1`, the IC50 is > 80 µM (inactive).

As to `CCOc1ccc(CNc2ccc(N3CCCC3)cc2)cc1`, the IC50 is > 80 µM (inactive).

`O=C(CSc1nc2ccccc2[nH]1)NC1CCCc2ccccc21` (stereo not given): the IC50 was > 80 µM (inactive).

Regarding `O=C(NC1=CC(=O)c2ccccc2C1=O)c1ccccc1`, the pIC50 is 4.42.

Take `Cc1ccc(/C=C2\C(=O)NC(=S)N(c3ccccc3F)C2=O)s1`: the IC50 is > 80 µM (inactive).

As to `COC1=CC(=O)C=C(OC)C1(O)CC(C)=O`, the IC50 was > 80 µM (inactive).

Regarding `O=C(CNC(=O)c1ccccc1)NCC(=O)OCC(=O)c1ccc([N+](=O)[O-])cc1`, the pIC50 was 4.17.

As to `CCOC(=O)c1c2ccc(OCC(=O)NN)cc2n2ccccc12`, the pIC50 is 5.03.

As to `CC1=NOC(=O)/C1=C\c1ccc(-c2ccccc2Br)o1`, the IC50 was > 80 µM (inactive).

As to `Cc1c(Cl)c([N+](=O)[O-])nn1Cc1ccc(C(=O)N/N=C\c2cccc(Br)c2)o1`, the IC50 was > 80 µM (inactive).

Consider `O=C1C(Cl)=C(NCCc2ccccc2)C(=O)c2ccccc21`, for which the pIC50 is 4.15.

Regarding `C=CCN1CCc2cccc3c2[C@H]1Cc1ccc(O)c(O)c1-3`, the IC50 was > 80 µM (inactive).

With `Cc1ccc(/C=C/C(=O)NCc2ccc(S(N)(=O)=O)cc2)o1`, the IC50 is > 80 µM (inactive).

For `Cc1cc(C)nc(/N=C(\N)Nc2ccccc2-c2ccccc2)n1`, the IC50 was > 80 µM (inactive).

For the molecule `CCOC(=O)c1ccc(/[N+]([O-])=C/c2ccccc2)cc1`, the IC50 was > 80 µM (inactive).

On to `CC1COCC(C)N1C1=C(Cl)C(=O)c2ccccc2C1=O` (stereo not given), for which the pIC50 is 4.37.

`N#CC(C#N)=C1C=CC=CN1/C(=C\c1ccccc1Cl)C(=O)c1ccccc1`: the IC50 is > 80 µM (inactive).

Turning to `CCCN1CCc2cccc3c2[C@H]1Cc1ccc(O)c(O)c1-3`, the IC50 was > 80 µM (inactive).

In the case of `O=c1c2cc(F)ccc2sn1-c1ccc(F)cc1`, the pIC50 was 4.63.

Regarding `O=c1c2ccccc2sn1-c1cc(S(=O)(=O)N2CCOCC2)ccc1N1CCCC1`, the pIC50 was 4.90.

Regarding `O=C(Nc1sc2c(c1C(=O)O)CCC2)c1ccc(F)cc1`, the pIC50 was 4.38.

`O=C(Nc1nnc(S(=O)(=O)N2CCCCC2)s1)c1cccc(Br)c1`: the pIC50 is 4.62.

For the molecule `O=C1C=CC(=O)N1c1ccc(-c2nc3ccccc3o2)cc1`, the IC50 is > 80 µM (inactive).

As for `Cn1c2ccccc2c2ccc3c(c21)C(=O)C=CC3=O`, the pIC50 was 5.74.

On to `O=C(Nc1nnc(S(=O)(=O)N2CCOCC2)s1)c1cccc(Br)c1`, for which the pIC50 is 4.22.

In the case of `Cc1cccc(NC2=C(NC(=O)c3ccccc3)C(=O)c3ccccc3C2=O)c1`, the IC50 is > 80 µM (inactive).

For the molecule `CC1(C)Cc2c(sc3nc4n(-c5ccccc5)c(=O)c(CCC(=O)O)nn4c(=O)c23)CO1`, the negative logarithm of the IC50 (pIC50) is 4.93.

Turning to `COc1ccc(S(=O)(=O)/N=C2\C=C(Nc3ccc(O)cc3)C(=O)c3ccccc32)cc1`, the IC50 was > 80 µM (inactive).

As for `COc1cc(NCc2ccccc2)c2ncn(C(C)C)c2c1`, the IC50 is > 80 µM (inactive).

For `COc1ccc(N2CSC3=C(C#N)C(c4ccc(OC)c(OC)c4)CC(=O)N3C2)c(OC)c1` (stereo not given), the IC50 was > 80 µM (inactive).

As to `OCc1ccccc1SSc1ccccc1CO`, the pIC50 was 4.27.

As to `COc1cc(/C=C2\SC(c3ccc(C)cc3)=NC2=O)ccc1O`, the IC50 was > 80 µM (inactive).

On to `Cc1ccc(-c2c(C(=O)N/N=C/c3ccsc3)nnn2-c2nonc2N)cc1`, for which the pIC50 was 4.19.

Take `[O-][N+](=Cc1ccccc1)c1ccc(Cl)cc1`: the IC50 is > 80 µM (inactive).

In the case of `COC(=O)c1ccccc1NC1=C/C(=N\S(=O)(=O)c2cccs2)c2ccccc2C1=O`, the pIC50 was 4.45 and 4.22.

In the case of `CC1=C(O)C(=O)C=C2C1=CC=C1C2(C)CCC2(C)C3CC(C)(C(=O)O)CCC3(C)CCC12C` (stereo not given), the pIC50 was 4.34.

Turning to `CC(CNc1ccccc1O)C(=O)O` (stereo not given), the IC50 was > 80 µM (inactive).

Regarding `O=C(CN1C(=O)C2C3C=CC(C3)C2C1=O)OCC(=O)c1ccc([N+](=O)[O-])cc1` (stereo not given), the IC50 was > 80 µM (inactive).

On to `OCCN1CCN(C(=S)c2ccc(Cl)c(Cl)c2)CC1`, for which the IC50 is > 80 µM (inactive).

On to `C(=N\Nc1nc2ccccc2[nH]1)/c1ccccn1`, for which the IC50 is > 80 µM (inactive).

`Cc1nnc(Sc2cc(NCCO)c([N+](=O)[O-])c3nonc23)s1`: the pIC50 was 4.44.

As to `Cc1ccc(S(=O)(=O)SCCCSS(=O)(=O)c2ccc(C)cc2)cc1`, the pIC50 is 4.45.

Turning to `O=S(=O)(NCc1csc(-c2ccccc2)n1)c1ccc(Cl)s1`, the IC50 was > 80 µM (inactive).

On to `Cc1ccc(/C=C/C(=O)NC2CCCCCCC2)o1`, for which the IC50 is > 80 µM (inactive).

`C[C@H](CO)N1C[C@H](C)[C@@H](CN(C)C(=O)Nc2ccc(C(F)(F)F)cc2)Oc2c(cccc2N(C)C)C1=O`: the IC50 is > 80 µM (inactive).

Take `COc1ccc(NC(=S)N(CCC(C)C)C2CCN(C(C)C)CC2)cc1Cl`: the pIC50 was 4.25.

On to `Cc1cc(NC(=O)c2oc3ccccc3c2C)ccc1-n1cnnn1`, for which the pIC50 is 4.83.

Take `Cc1cc(O)c(C(C)C)cc1N=Cc1ccc([N+](=O)[O-])cc1`: the IC50 is > 80 µM (inactive).

On to `C=CCOc1c(Cl)cc(CNc2ccc(N(C)C)cc2)cc1OC`, for which the pIC50 was 4.21.

For the molecule `Cc1ccc(S(=O)(=O)NNc2ccccc2)cc1`, the pIC50 was 4.27.

Consider `COc1ccc(C(=O)Nc2cc(Cl)ccc2C(=O)O)cc1`, for which the pIC50 was 4.75.

With `CN=c1nc(-c2ccccc2)n(-c2ccccc2)s1`, the negative-log IC50 (pIC50) is 4.69.

As to `CN(C)c1ccc(Cc2cc3c(O)ccc(O)c3cc(Cc3ccc(N(C)C)cc3)c2=O)cc1`, the pIC50 was 4.26.

Take `CCN(CC)c1ccc(C(=C2C=CC(=[N+](CC)CC)C=C2)c2ccc(N(CC)CC)cc2)cc1`: the pIC50 is 4.79.

In the case of `COc1cccc(C(=O)Nc2nnc(C(C)C)s2)c1`, the pIC50 was 4.67.

Regarding `Cc1ccc(-c2csc(NC(=O)c3ccc(Br)cc3)c2C(=O)O)cc1`, the pIC50 was 4.53.

With `Cc1ccc(/C=C/C(=O)NCCc2cccc(Cl)c2)o1`, the IC50 was > 80 µM (inactive).

As to `Nn1c(SCC(=O)Nc2cccnc2Cl)nnc1-c1ccccc1`, the IC50 is > 80 µM (inactive).

For `[O-]/[N+](=C/c1cccnc1)c1ccc(Br)cc1`, the pIC50 was 4.11.

Regarding `Cc1ccccc1OCC(=O)NCC(=O)OCC(=O)c1ccc([N+](=O)[O-])cc1`, the pIC50 is 4.17.

Take `CN(C)Cc1cc(O)c(CN(C)C)cc1O`: the pIC50 is 4.59.

In the case of `COCCNC(=S)Nc1ccc(N2CCOCC2)c(S(=O)(=O)Nc2ccc(Cl)cc2)c1`, the IC50 was > 80 µM (inactive).

For the molecule `O=c1ccsn1Cc1ccccc1`, the pIC50 was 4.24.

For `[O-]/[N+](=C\c1ccccc1)c1ccc(Br)cc1`, the IC50 is > 80 µM (inactive).

Consider `CCOc1cc(NCc2ccccc2)c2ncn(C(C)C)c2c1`, for which the IC50 is > 80 µM (inactive).

Take `OCCN1CCN(C(=S)c2ccc(-c3ccccc3)cc2)CC1`: the IC50 is > 80 µM (inactive).

With `Cc1cc(C)nc(NC(N)=NCCc2ccccc2)n1`, the IC50 is > 80 µM (inactive).

For `Cn1c(=O)c2c([nH]c(=S)n2CCCc2ccccc2)n(C)c1=O`, the pIC50 was 4.14.

Consider `Cc1ccc(Cl)cc1NC1=C/C(=N\S(=O)(=O)c2cccs2)c2ccccc2C1=O`, for which the IC50 is > 80 µM (inactive).

For the molecule `Cc1cccc(C(=O)Nc2nnc(S(=O)(=O)N3CCOCC3)s2)c1`, the pIC50 was 4.23.

`Cc1cccc(C2(c3cccc(C)c3)CC2C(=O)Nc2ccc([N+](=O)[O-])cc2O)c1` (stereo not given): the IC50 was > 80 µM (inactive).

Turning to `O=c1[nH]sc2cc(F)ccc12`, the pIC50 was 4.25.

As to `CCOC(=O)C1CCCN(C(=O)Cn2sc3nc(C)cc(C)c3c2=O)C1` (stereo not given), the pIC50 was 4.29.

For `S=c1ncc2[nH]c(=S)[nH]c2[nH]1`, the pIC50 is 4.19.

As to `CC(=O)Nc1ccc(S(=O)(=O)/N=C2\C(=O)c3ccccc3C([O-])=C2n2cc[n+](-c3ccccn3)c2)cc1`, the IC50 is > 80 µM (inactive).

`COc1cc(CNc2ccc3[nH]c(=O)[nH]c3c2)ccc1OCc1ccccc1`: the IC50 is > 80 µM (inactive).

Take `CC1=CC(C)(C)Nc2ccc(OC(=O)CN3C(=O)CCC3=O)cc21`: the pIC50 was 4.20.

Consider `N#Cc1ccc(N=c2ssnc2Cl)cc1`, for which the pIC50 was 4.27.

For `CCOC(=O)c1c(OCC)[nH]c2c1cc(O)c1ccccc12`, the IC50 is > 80 µM (inactive).

For `Cc1no[n+]([O-])c1COc1cccc(/C=N/Nc2nncn2N)c1`, the pIC50 was 4.52.

As for `N#Cc1c(C#N)c(SSc2c(C#N)c(C#N)c(N)n2-c2ccccc2)n(-c2ccccc2)c1N`, the IC50 is > 80 µM (inactive).

With `COc1ccc(N2C(=O)/C(=C/c3cccs3)NC2=S)cc1`, the pIC50 was 4.40.

As to `O=C(CCC(=O)OCC(=O)c1ccc([N+](=O)[O-])cc1)Nc1ccccc1Cl`, the IC50 was > 80 µM (inactive).

In the case of `O=C1CCC[C@@H]2[C@@H](Cc3ccccc3)[C@H](N3CCN(c4ccccc4)CC3)C[C@@H]3CCN1[C@@H]32`, the IC50 is > 80 µM (inactive).

Take `COc1c2ccoc2c(OCC=C(C)C)c2oc(=O)ccc12`: the IC50 is > 80 µM (inactive).

Turning to `Cc1ccsc1/C=N\NC(=O)CC(=O)NCc1ccccc1`, the IC50 was > 80 µM (inactive).

For the molecule `COc1ccc(NC2CCCN(Cc3cccc4cnccc34)C2)cc1OC` (stereo not given), the IC50 was > 80 µM (inactive).

With `C=CCN=c1scc(-c2ccco2)n1/N=C/c1ccc(O)c(O)c1O`, the pIC50 was 4.23.

For the molecule `COc1ccc2c(c1)c(=Cc1ccc(N(C)C)cc1)c1cc(-c3ccccc3)[n+](C)n12`, the pIC50 was 4.19.

For the molecule `O=c1c2ccccc2sn1-c1ccccc1F`, the pIC50 is 4.81.

As to `O=c1c2ccccc2sn1-c1cccc(Cl)c1`, the pIC50 was 4.85.
